Assay results as given in patent US6998392B2, “Formulation to treat or prevent parasitic infection” (MTI Meta Tech Inc., priority 2003, dated 2006).

Test system: Giardia lamblia (WB strain) trophozoites
Test: Growth of Giardia lamblia trophozoites during 24 hr and 48 hr incubation in vitro (live and dead counts)
Type: cell-based
Conditions: for Reduction of live trophozoites compared to control cultures: 48 hr incubation, n=3
Description: Methods for Evaluating the Effect of Ganglioside Enriched Preparation and Ganglioside Fractions on Growth of Giardia lamblia Trophozoites in vitro. The following method was used for preparation of culture medium containing ganglioside. A preparation containing gangliosides was vortexed and sonicated (Sonic 300 Dismembrator™, Artek System Corp.) in 10 ml of TYI-S-33 culture medium, and further diluted by adding 990 ml of culture medium. This stock culture medium containing a known concentration of gangliosides was filtered in succession through Whatman™ No. 1 filter paper, 0.8 μm, 0.45 μm (Milli-Fil-P.F.™ Millipore Corp.), and 0.22 μm (Sterivex-GS™ filters with filling bell, Millipore Corp) filters connected to a peristaltic pump. This stock solution was kept at −30° C. and was diluted on the day of inoculation.
G. lamblia (WB strain) trophozoites were cultured in Diamond's TYI-S-33 (Diamond et al., 1978.). G. lamblia trophozoites (5×10^5) were inoculated in 12.5 cm^2 tissue culture flasks in the total volume of […]. Nutrient stock solution containing gangliosides was diluted to provide a concentration of ganglioside (as N-Acetyl neuraminic acid amounts, NANA) at 0 (control), 0.001, 0.01, 1, 2, and 4 μg/ml. The cultures were incubated for 24 and 48 hr at 37° C. in 5% CO2, and the number of live and dead (no flagellar movement) trophozoites determined using a hemocytometer.
The following method was used for preparation of culture medium containing ganglioside fraction. Total lipids were extracted from the ganglioside enriched preparation using the Folch method (Folch et al., 1957). The ganglioside containing upper phase was transferred and the lower phase was washed once with Folch upper phase solution (chloroform/methanol/water, 3/48/47 by vol.). The combined ganglioside containing fractions were passed through Sep-Pak™ C18 reverse-phase cartridges (Waters Corporation, Milford, Mass., USA), eluted with methanol and chloroform and methanol 2:1 (v/v), and dried completely under vacuum at 23° C. using a rotary evaporator (Williams et al., 1980). Ganglioside (NANA) content was measured as described by Suzuki (1964). Gangliosides were then diluted using the culture medium and filtered as described above.
G. lamblia trophozoites (5×10^5) were incubated for 24 hr and 48 hr with ganglioside fraction at the concentration of 0 (control), 4, 8, 10, 12, 14, 16 and 20 μg/ml in 12.5 cm^2 tissue culture flasks as described above.
In vitro. This study was performed to determine if Fraction A is directly toxic to the parasite. Several dilutions of Fraction A was added to the media at the concentration of 0, 0.001, 0.01, 0, 1, 1, 2, and 4 ug/ml and incubated for 24 hours and 48 hours after inoculation with 500,000 Giardia lamblia trophozoites. […]

Substance: II^(NeuAc)2-LacCer [GD3]
- Reduction of live trophozoites compared to control cultures (10 μg/ml (NANA)): 25%
- Reduction of live trophozoites compared to control cultures (20 μg/ml (NANA)): 55%
- Live trophozoites as a percent of control versus concentration (48 hour incubation, in words (FIG. 12)): decrease as a percent of control in a dose-dependent manner
- Dead trophozoites as a percentage of live trophozoites versus concentration (48 hour incubation, in words (FIG. 13)): increase as a percentage of live trophozoites
